From PMC9841576, “Characterisation of C101248: A novel selective THIK-1 channel inhibitor for the modulation of microglial NLRP3-inflammasome” (Neuropharmacology, 2023)
Where two headings read alike, the source gives them in different places.

Legend:
[1] = target: T1, THIK-1 (Homo sapiens, UniProt Q9HB14); assay: Competition radioligand binding with 3H-C101505, membranes from HEK-hKCNK13 cells
T1 construct: expressed in transfected cells
T1 sequence (Q9HB14 1-408): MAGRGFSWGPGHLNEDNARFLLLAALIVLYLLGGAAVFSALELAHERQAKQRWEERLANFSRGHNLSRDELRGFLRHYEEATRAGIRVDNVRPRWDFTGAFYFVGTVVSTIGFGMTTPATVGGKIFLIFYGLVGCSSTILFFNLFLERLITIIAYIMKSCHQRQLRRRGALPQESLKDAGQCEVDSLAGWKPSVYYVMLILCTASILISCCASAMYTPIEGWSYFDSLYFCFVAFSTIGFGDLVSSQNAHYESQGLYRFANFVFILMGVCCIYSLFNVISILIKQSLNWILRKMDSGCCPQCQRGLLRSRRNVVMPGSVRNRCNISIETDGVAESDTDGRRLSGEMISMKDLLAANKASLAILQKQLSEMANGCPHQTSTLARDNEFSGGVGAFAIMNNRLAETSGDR
Experimental: From within the same chemotype as C101248, a structurally related compound (C101505) was tritiated for use in radioligand binding studies (specific activity 14 Ci/mmol). All radioligand binding assays were performed by Gifford Bioscience (Birmingham, UK). Cells were grown to approximately 90% confluence, washed twice with PBS and once with PBS with sucrose (10%) solution that was removed before the flasks were stored at −80 °C. Upon thawing, ice-cold lysis buffer (50 mM Tris-HCl; 5 mM MgCl2; 5 mM EDTA; protease inhibitor cocktail) was added to the flasks for 5 min (4 °C) and the cell layer scraped into collection tubes. The lysate was centrifuged at 13,000 g for 10 min (4 °C) to pellet the membranes. […] A sample of the homogenate was analysed for protein content using a BCA protein assay kit. […] Filters were then dried under a warm air stream, sealed in polyethylene, scintillation cocktail added, and the radioactivity counted in a MicroBeta TriLux counter (Wallac). […] The in vitro binding affinity (Ki) of C101248 was calculated from the experimental IC50 value using the Cheng-Prusoff equation (([Cheng and Prusoff, 1973]) Ki = IC50/(1 + ([L]/KD)), where [L] was the radioligand concentration in the displacement assay and KD was the radioligand dissociation constant determined from previous saturation binding studies.

[2] = target: T1, THIK-1; assay: Whole-cell manual patch clamp of HEK-hTHIK-1 cells with rapid perfusion exchanger; format: cell-based; details: current at 50 mV
Experimental: Cells were plated onto uncoated, sterile glass coverslips at a density of 1 × 10^6 cells/ml in a droplet of approximately 200 μl and incubated at 37 °C/5% CO2 before use at least 24 h later. Coverslips were transferred to the microscope stage chamber and cells visualised under IR-DIC illumination. The chamber was gravity perfused with a solution containing (in mM): 140 NaCl, 2.5 KCl, 10 HEPES, 1 NaH2PO4.H20, 2 CaCl2, 1 MgCl2, 10 glucose, with pH adjusted to 7.4 using NaOH and osmolarity adjusted to 320 mOsM using sucrose. The chamber was fed from a rapid perfusion exchanger, which continuously perfused square, multi-barrelled glass tubes, using laminar flow. Cells were patched using micropipettes filled with a solution containing (in mM): 125 KCl, 4 NaCl, 1 CaCl2, 10 HEPES, 10 EGTA, 4 MgATP, 2 Na2ATP, 2 MgCl2, 0.5 Na2GTP, pH adjusted to 7.1 with KOH and osmolarity adjusted to 320 mOsm with sucrose. The liquid junction potential was calculated to be 4.8 mV and was not corrected for. […] The current at 50 mV from each sweep was measured and plotted against time. Curves were fitted in GraphPad Prism to a one phase decay [Y= IF(X < X0, Y0, Plateau+(Y0-Plateau)*exp(-K*(X-X0))), where x = time, y = Y0 until X = X0 then decays down to plateau with one phase, K = rate constant]. τ values were calculated to determine the activation time constant.

[3] = CNS PK study in mice; format: in vivo; details: 30 mg/kg single oral, male mice; for Kp: C57BL/6, mouse, 0.25-2 h post dose
Experimental: In CNS PK studies, rodents (C57BL/6 mice or Sprague Dawley rats) were administered C101248 by oral gavage at 10 or 30 mg/kg. At specified timepoints post dose (0.5, 1, 2 or 4 h), blood samples were collected and processed to plasma (centrifugation at 5000 rpm, 4 °C for 10 min). Immediately following blood withdrawal, cerebrospinal fluid (CSF) samples were collected from the cisterna magna, whole body perfusion was conducted, and brain samples were collected and weighed. Samples were stored frozen at −80 ± 10 °C until analysis. Plasma, CSF, and brain samples were analysed using a fit for purpose bioanalytical method (LC-MS/MS) against a calibration curve containing QC samples. Brain:plasma and CSF:plasma were calculated based on brain concentration/plasma concentration at the same timepoint. Unbound partition coefficient (Kpu,u) values were calculated based on unbound brain concentration/unbound plasma concentration at the same timepoint. Unbound concentrations were derived by adjusting plasma concentrations for the fraction unbound in plasma based on in vitro plasma protein binging (PPB) values and brain concentrations for the unbound fraction in brain tissue based on in vitro brain tissue binding (BTB) values.

[4] = target: ROCK-2 (h) (Homo sapiens, UniProt O75116); assay: Kinase selectivity; format: biochemical
From the text: Supplement mmc1.docx, table 1 | column: IC50 (μM)

Chain of ROCK-2 (h) (O75116 whole entry): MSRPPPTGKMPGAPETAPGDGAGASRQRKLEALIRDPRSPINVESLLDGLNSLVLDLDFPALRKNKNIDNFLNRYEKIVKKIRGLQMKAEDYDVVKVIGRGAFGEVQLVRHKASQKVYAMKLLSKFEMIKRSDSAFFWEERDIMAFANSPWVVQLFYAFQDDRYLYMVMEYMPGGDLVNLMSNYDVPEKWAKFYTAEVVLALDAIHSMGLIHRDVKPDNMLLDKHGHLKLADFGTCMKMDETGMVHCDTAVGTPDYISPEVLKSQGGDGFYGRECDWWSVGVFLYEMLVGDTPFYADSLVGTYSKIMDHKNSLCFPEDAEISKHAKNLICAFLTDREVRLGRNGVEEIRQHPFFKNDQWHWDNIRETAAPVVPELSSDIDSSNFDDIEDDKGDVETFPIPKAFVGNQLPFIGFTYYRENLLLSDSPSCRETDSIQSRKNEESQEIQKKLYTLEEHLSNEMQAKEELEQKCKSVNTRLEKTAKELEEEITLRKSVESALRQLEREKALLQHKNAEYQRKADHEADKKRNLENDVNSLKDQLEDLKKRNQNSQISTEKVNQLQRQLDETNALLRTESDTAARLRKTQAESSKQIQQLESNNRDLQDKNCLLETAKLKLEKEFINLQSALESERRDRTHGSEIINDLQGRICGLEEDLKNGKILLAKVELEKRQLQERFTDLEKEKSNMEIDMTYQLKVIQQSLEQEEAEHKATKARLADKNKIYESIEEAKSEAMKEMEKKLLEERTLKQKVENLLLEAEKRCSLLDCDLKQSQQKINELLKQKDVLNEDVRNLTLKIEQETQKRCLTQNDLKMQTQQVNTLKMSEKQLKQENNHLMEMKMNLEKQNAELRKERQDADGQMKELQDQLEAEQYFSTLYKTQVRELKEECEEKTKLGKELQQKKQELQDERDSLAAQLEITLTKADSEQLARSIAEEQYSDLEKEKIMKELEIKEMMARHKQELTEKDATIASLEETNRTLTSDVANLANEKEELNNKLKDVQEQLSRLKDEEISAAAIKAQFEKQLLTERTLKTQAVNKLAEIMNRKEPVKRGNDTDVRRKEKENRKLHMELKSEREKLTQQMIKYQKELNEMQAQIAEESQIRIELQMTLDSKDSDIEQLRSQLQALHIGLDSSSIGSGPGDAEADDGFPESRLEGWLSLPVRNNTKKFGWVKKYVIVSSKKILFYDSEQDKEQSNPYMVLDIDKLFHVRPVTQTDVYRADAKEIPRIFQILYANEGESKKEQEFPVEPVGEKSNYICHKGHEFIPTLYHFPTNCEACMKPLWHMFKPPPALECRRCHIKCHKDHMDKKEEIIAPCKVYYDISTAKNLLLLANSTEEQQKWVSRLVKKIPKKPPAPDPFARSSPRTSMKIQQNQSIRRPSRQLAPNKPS

Structure (SMILES): Nc1nonc1-c1nc2ccccc2n1Cc1ccncc1 [C101248]
- Ki ([1]; Cheng-Prusoff from IC50, radioligand 3H-C101505): 57 nM
- IC50 ([1]; radioligand 3H-C101505, HEK-hKCNK13 membranes, read-out: IC50, displacement of radioligand): 77 nM
- activation time constant (τ) ([2]; 0.5 μM): 217.4 ± 61.4 s
- activation time constant (τ) ([2]; 5 μM): 83.4 ± 17.2 s
- time of maximal concentration (Cmax) ([3]; brain, CSF and plasma (all matrices)): 1 h
- Kp ([3]; CSF / unbound plasma, read-out: CSF:unbound plasma): 0.8 to 1.2
- Kp ([3]; brain (unbound) / plasma (unbound), read-out: unbound partition coefficient (Kpu,u)): 0.7 to 1.5
- IC50 [4]: > 10000 nM
